This passage reports KD and binding results from article PMC4793209 (2016).

Assay in all cases: in-line probing
Assay [1] relates to 108 yjdF RNA (WT, B. subtilis) (RNA, riboswitch) GGUAUAUGGUAAAGAAUGAAAAAACACGAUUCGGUUGGUAGUCCGGAUGCAUGAUUGAGAAUGUCAGUAACCUUCCCCUCCUCGGGAUGUCCAUCAUUCUUUAAUAUCU
As to conditions: 100 mM KCl, 20 mM MgCl2, 50 mM Tris-HCl pH 8.3, 25 °C.

Assay [2] has as its system 108 yjdF M3 (RNA, riboswitch) GGUAUAUGGUAAAGAAUGAAAAAACACGAUUCGGUUGGUCGUCCGGAUGCAUGAUUGAGAAUGUCAGUAACCUUCCCCUCCUCGGGAUGUCCAUCAUUCUUUAAUAUCU
As to conditions: 100 mM KCl, 20 mM MgCl2; 50 mM Tris-HCl pH 8.3, 25 °C.

Assay [3] concerns 108 yjdF M1 (RNA, riboswitch) GGUAUAUGGUAAACUAUGAAAAAACACGAUUCGGUUGGUAGUCCGGAUGCAUGAUUGAGAAUGUCAGUAACCUUCCCCUCCUCGGGAUGUCCAUCAUUCUUUAAUAUCU
As to conditions: 100 mM KCl, 20 mM MgCl2; 50 mM Tris-HCl pH 8.3, 25 °C; affinity reduced against WT.

Assay [4] deals with 108 yjdF M2 (RNA, riboswitch) GGUAUAUGGUAAACUAUGAAAAAACACGAUUCGGUUGGUAGUCCGGAUGCAUGAUUGAGAAUGUCAGUAACCUUCCCCUCCUCGGGAUGUCCAUCAUAGUUUAAUAUCU
Conditions: 100 mM KCl, 20 mM MgCl2; 50 mM Tris-HCl pH 8.3, 25 °C; near WT affinity.

Assay [5] deals with 107 yjdF RNA (B. endophyticus) (RNA, riboswitch) GGUAUAUGAAAUGAAAAAACACAAUUCGGUUGGUAGUCCGGAUGCAUCAUAAUAAAUGAAUGUCAGUAGCCUUCCCCUCCUCGGGAUGUCCAUCAUUUCAUAGUAUUUU
Conditions: 100 mM KCl, 20 mM MgCl2; 50 mM Tris-HCl pH 8.3, 25 °C.

The mark [6] stands for this setting: apparent, unit in unseen head of Table S1.
Setting [7] is: 36-48 h, RNA <5 nM, apparent, 10 µM or poorer.

As to `C[n+]1cc2c3c(ccc2c2ccc4cc5c(cc4c21)OCO5)OCO3`, the KD in assay [1] (36-48 h, RNA <5 nM, apparent) is reported as 4.2 nM. As for `Cc1nccc2c1[nH]c1ccccc12`, in assay [1] (apparent), the binding result is listed as “yes”.

Regarding `C[C@H](CCC(=O)O)[C@H]1CC[C@H]2[C@@H]3CC[C@@H]4C[C@H](O)CC[C@]4(C)[C@H]3C[C@H](O)[C@]12C`, the KD in assay [1] (setting [6]) is more than 100. As for `Cc1cc2nc3c(=O)[nH]c(=O)nc-3n(C[C@H](O)[C@H](O)[C@H](O)CO)c2cc1C`, the binding result in assay [2] was “no”; in assay [1] (riboflavin 0-10 µM, weaker than proflavine) it was “yes”. With `O=C(O)/C=C/c1ccc(O)c(O)c1`, the KD in assay [1] (setting [7]) is more than 10000 nM. As to `C[C@H](CCC(=O)NCCS(=O)(=O)O)[C@H]1CC[C@H]2[C@@H]3CC[C@@H]4C[C@H](O)CC[C@]4(C)[C@H]3C[C@H](O)[C@]12C`, the KD in assay [1] (setting [6]) is recorded as more than 100. As to `CC(=O)Oc1ccccc1C(=O)O`, the KD in assay [1] (setting [7]) is more than 10000 nM. As to `CCn1cc(C(=O)O)c(=O)c2ccc(C)nc21`, the KD in assay [1] (36-48 h, RNA <5 nM, apparent) is ~ 1 µM.

Turning to `C[C@H](CCC(=O)O)[C@H]1CC[C@H]2[C@@H]3[C@H](O)C[C@@H]4C[C@H](O)CC[C@]4(C)[C@H]3CC[C@]12C`, in assay [1] (setting [6]), the KD was more than 100. As for `Nc1ccc2cc3ccc(N)cc3nc2c1`, the figures for the binding result in assay [3], in assay [2] and in assay [4] were “weak”, “no” and “yes”, respectively. Further, the KD in assay [1] (36-48 h, RNA <5 nM, apparent) amounted to 6.1 nM. With `Cc1cc2nc3c(=O)[nH]c(=O)nc-3n(C)c2cc1C`, in assay [1] (36-48 h, RNA <5 nM, apparent), the KD was found to be 800 nM. In the case of `COc1ccc2c(c[n+](C)c3c4cc5c(cc4ccc23)OCO5)c1OC`, the binding entry in assay [5] is recorded as “yes”. Moreover, the KD in assay [1] (36-48 h, RNA <5 nM, apparent) was 2.5 nM. `O=C(O)/C=C/c1ccccc1`: the KD in assay [1] (setting [7]) was more than 10000 nM. `Cc1cc(N)c2ccccc2[n+]1CCCCCCCCCC[n+]1c(C)cc(N)c2ccccc21`: the binding result in assay [1] (apparent) is listed as “yes”.
